What all share (type): biochemical
One assay has as its target T1, Human DPP 9 (Homo sapiens, UniProt Q86TI2).
T1 construct: made in house; host or cells: insect cells, baculovirus Bac-to-Bac
The assay is described as follows: DPP 9 activity screening (Ala-Pro-AMC fluorescence). Conditions: N.I. = No Inhibition. Put shortly:
(§1)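 Insect-cell baculovirus-expressed human enzymes hydrolyse Ala-Pro-AMC; AMC release monitored kinetically as fluorescence rate (ex 355/em 460 nm). Primary screen at a single concentration (e.g. 20 μg/mL); dose–response fitted to variable-slope sigmoid with bottom/top fixed at 0 and 100.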

The target in the next assay is T2, FAP (Homo sapiens, UniProt Q12884).
T2 sequence (Q12884 1-760): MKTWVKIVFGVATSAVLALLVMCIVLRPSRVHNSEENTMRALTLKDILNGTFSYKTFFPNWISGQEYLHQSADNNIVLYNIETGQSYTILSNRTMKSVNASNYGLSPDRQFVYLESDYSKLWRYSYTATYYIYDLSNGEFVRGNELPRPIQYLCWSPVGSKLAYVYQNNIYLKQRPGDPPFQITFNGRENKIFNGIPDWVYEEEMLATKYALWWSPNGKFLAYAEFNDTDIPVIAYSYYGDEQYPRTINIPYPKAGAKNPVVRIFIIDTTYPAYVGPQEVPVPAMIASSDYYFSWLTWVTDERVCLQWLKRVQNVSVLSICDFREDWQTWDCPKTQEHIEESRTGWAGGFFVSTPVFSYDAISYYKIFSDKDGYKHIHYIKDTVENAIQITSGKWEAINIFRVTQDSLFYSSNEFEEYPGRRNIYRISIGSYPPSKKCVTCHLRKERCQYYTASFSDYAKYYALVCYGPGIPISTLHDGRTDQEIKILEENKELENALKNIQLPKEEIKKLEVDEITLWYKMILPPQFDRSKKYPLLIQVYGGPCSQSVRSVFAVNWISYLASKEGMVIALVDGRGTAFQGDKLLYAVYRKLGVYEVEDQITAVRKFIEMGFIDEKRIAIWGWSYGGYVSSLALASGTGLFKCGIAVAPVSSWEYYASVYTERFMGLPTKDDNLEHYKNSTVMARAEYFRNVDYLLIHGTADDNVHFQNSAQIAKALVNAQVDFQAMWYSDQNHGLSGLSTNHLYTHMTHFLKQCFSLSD
The assay is described as follows: FAP inhibition (Table 1). Conditions: N.I. = No Inhibition.

For the next assay, the target named is T3, human DPP IV (Homo sapiens, UniProt P27487).
T3 construct: extracellular fragment of protease DPP IV (aa29-766); made in house; host or cells: baculovirus expression system Bac-to-Bac
The assay is described as follows: DPP IV activity screening (Ala-Pro-AMC fluorescence). The method in brief:
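DPP IV activity is taken as the linear rate of fluorescence change at 460 nm. Samples are dissolved in DMSO and screened at a single concentration (e.g. 20 μg/mL). Dose-response data are fit to a variable-slope sigmoidal model with bottom and top fixed at 0 and 100.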

In assay [1] the target is dipeptidyl peptidase 7 (DPP 7) (Homo sapiens, UniProt Q9UHL4). The assay is described as follows: DPP 7 activity screening. The conditions noted are these: N.I. = No Inhibition. The method in brief: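 Sample dissolved in DMSO, final DMSO kept at a level not affecting activity; tested at a single concentration from preliminary screening (e.g. 20 μg/mL). Dose-response data fitted to sigmoidal variable-slope model with bottom and top fixed at 0 and 100.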

The target of a further assay is T4, human DPP 8 (Homo sapiens, UniProt Q6V1X1).
T4 construct: made in house; host or cells: insect cells, baculovirus Bac-to-Bac
The assay is described as follows: DPP 8 activity screening (Ala-Pro-AMC fluorescence). The conditions noted are these: N.I. = No Inhibition. Put shortly: as §1

T1 sequence (Q86TI2 whole entry): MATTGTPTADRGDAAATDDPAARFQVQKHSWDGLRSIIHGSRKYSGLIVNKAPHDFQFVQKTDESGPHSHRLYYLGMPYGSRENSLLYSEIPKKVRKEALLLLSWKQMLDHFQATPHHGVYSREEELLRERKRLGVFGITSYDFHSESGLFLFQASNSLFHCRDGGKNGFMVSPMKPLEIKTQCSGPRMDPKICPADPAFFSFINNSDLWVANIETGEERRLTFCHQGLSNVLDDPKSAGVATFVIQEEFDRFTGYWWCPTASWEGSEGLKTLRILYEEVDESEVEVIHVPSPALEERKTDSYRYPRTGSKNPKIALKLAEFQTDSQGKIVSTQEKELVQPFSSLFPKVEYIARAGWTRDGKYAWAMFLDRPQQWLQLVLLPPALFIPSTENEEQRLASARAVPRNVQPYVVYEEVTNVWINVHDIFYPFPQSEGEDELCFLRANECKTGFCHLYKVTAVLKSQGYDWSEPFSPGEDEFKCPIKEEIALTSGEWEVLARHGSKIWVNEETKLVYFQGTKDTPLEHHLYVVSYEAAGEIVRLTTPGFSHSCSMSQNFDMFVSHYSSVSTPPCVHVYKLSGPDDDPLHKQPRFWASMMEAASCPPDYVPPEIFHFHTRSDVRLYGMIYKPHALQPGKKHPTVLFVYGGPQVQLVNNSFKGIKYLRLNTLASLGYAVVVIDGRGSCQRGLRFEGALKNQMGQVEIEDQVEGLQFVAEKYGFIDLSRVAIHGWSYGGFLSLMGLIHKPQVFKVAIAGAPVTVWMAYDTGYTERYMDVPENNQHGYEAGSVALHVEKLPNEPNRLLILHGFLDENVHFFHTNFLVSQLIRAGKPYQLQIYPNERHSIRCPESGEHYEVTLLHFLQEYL
T4 sequence (Q6V1X1 whole entry): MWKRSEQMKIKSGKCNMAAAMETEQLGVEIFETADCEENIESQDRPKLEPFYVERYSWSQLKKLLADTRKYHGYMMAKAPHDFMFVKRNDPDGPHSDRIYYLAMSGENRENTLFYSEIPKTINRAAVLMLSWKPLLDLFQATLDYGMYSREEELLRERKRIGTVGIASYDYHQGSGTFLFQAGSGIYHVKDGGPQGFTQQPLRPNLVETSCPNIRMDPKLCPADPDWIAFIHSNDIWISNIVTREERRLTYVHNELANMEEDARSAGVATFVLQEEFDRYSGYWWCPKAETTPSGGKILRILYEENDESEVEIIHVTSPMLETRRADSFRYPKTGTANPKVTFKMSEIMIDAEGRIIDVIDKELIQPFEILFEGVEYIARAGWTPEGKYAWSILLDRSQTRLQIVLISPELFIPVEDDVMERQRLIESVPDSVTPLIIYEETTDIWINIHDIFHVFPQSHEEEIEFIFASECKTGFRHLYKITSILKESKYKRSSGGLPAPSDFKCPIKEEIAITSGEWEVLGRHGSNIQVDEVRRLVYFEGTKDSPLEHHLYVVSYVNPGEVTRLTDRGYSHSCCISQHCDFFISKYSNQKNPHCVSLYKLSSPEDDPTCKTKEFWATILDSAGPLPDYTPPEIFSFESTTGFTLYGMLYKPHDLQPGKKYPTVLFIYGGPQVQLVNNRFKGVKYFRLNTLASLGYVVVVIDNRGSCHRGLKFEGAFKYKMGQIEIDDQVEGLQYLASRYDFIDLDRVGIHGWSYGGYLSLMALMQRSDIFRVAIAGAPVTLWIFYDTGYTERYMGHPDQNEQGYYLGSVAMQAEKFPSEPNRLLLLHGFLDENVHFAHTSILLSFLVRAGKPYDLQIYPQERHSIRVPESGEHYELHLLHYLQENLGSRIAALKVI
T3 sequence (P27487 29-766): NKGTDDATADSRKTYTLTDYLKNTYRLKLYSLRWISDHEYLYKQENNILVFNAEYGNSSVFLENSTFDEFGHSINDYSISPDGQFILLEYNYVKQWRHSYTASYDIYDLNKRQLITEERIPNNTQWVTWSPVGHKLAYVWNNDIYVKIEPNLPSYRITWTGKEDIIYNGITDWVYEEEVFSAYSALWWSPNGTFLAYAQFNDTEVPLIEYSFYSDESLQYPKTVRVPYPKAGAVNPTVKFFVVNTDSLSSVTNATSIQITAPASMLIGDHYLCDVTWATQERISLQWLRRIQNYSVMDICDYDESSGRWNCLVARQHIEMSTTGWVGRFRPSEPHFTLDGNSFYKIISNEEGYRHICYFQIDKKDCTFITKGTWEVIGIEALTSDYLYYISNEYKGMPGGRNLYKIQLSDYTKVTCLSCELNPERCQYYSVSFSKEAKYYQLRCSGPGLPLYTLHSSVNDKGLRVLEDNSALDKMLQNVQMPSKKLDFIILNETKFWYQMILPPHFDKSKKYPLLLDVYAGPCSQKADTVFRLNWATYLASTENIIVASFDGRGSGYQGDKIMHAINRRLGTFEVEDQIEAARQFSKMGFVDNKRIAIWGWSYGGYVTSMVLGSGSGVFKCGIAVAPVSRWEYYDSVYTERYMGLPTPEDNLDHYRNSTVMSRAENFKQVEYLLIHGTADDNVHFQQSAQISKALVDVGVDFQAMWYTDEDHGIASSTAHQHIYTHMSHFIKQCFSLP

For `CS(=O)(=O)Nc1csc2c(=O)n(Cc3ccccc3C#N)c(N3CCC[C@@H](N)C3)nc12` [Compound 85, (R)-N-(2-(3-aminopiperidin-1-yl)-3-(2-cyanobenzyl)-4-oxo-3,4-dihydrothieno-[3,2-d]pyrimidin-7-yl) methanesulfonamide], the “DPP 9 IC50” value on Human DPP 9 is on record as “N.I”. In addition, the IC50 at FAP was determined as 255 µM; at human DPP IV, 0.0371 µM; at human DPP 8 it was 339 µM. Besides, the “DPP 7 IC50” value in assay [1] was “N.I”.

Turning to `CN1CCN(C(=O)c2csc3c(=O)n(Cc4ccccc4C#N)c(N4CCC[C@@H](N)C4)nc23)CC1` [Compound 70, (R)-2-((2-(3-aminopiperidin-1-yl)-7-(4-methylpiperazine-1-carbonyl)-4-oxothieno[3,2-d]pyrimidin-3(4H)-yl)-methyl)benzonitrile], the IC50 on Human DPP 9 was determined as 94.5 µM; against FAP it was 136 µM; at human DPP IV, 0.0186 µM; against human DPP 8, 38.9 µM. Besides, in assay [1], the “DPP 7 IC50” value is on record as “N.I”.

With `N#Cc1ccccc1Cn1c(N2CCC[C@@H](N)C2)nc2c(C(=O)NC3CCOCC3)csc2c1=O` [Compound 81, (R)-2-(3-aminopiperidin-1-yl)-3-(2-cyanobenzyl)-4-oxo-N-(tetrahydro-2H-pyran-4-yl)-3,4-dihydrothieno[3,2-d]-pyrimidine-7-carboxamide], the half-maximal inhibitory concentration (IC50) came to 348 µM against Human DPP 9, 44 µM against FAP, 0.0202 µM on human DPP IV and 59.4 µM against human DPP 8. Also, the “DPP 7 IC50” value in assay [1] is “N.I”.

Regarding `CCCCNC(=O)c1csc2c(=O)n(Cc3ccccc3C#N)c(N3CCC[C@@H](N)C3)nc12` [Compound 77, (R)-2-(3-aminopiperidln-1-yl)-N-butyl-3-(2-cyanobenzyl)-4-oxo-3,4-dihydrothieno[3,2-d]pyrimidine-7-carboxamide], the “DPP 9 IC50” value at Human DPP 9 is on record as “N.I”. Further, the IC50 against FAP is 45.2 µM; against human DPP IV it was 0.0111 µM; in assay [1] it was 30 µM; against human DPP 8, 49.4 µM.

With `CC(=O)OCc1cc2nc(N3CCC[C@@H](N)C3)n(Cc3ccccc3C#N)c(=O)c2s1` [Compound 96, (R)-(2-(3-aminopiperidin-1-yl)-3-(2-cyanobenzyl)-4-oxo-3,4-dihydrothieno-[3,2-d]pyrimidin-6-yl)methyl acetate], the “DPP 9 IC50” value on Human DPP 9 is “N.I”. For the same compound, the “FAP IC50” value on FAP is “N.I”. Besides, inhibition at human DPP IV was half-maximal at 0.0116 µM (IC50). Moreover, in assay [1], the “DPP 7 IC50” value is “N.I”. Also, the “DPP 8 IC50” value on human DPP 8 is given as “N.I”.

For the compound `COC(=O)[C@H](Cc1ccc(O)cc1)NC(=O)c1csc2c(=O)n(Cc3ccccc3C#N)c(N3CCC[C@@H](N)C3)nc12` [Compound 62, (S)-methyl 2-(2-((R)-3-aminopiperidin-1-yl)-3-(2-cyanobenzyl)-4-oxo-3,4-dihydrothieno[3,2-d]pyrimidine-7-carboxamido)-3-(4-hydroxyphenyl)-propanoate], the half-maximal inhibitory concentration (IC50) on Human DPP 9 stood at 54.8 µM; on FAP, 37.4 µM; against human DPP IV, 0.0492 µM; on human DPP 8 it was 12.3 µM. In addition, the “DPP 7 IC50” value in assay [1] is on record as “N.I”.

As to `N#Cc1ccccc1Cn1c(N2CCC[C@@H](N)C2)nc2c(C(N)=O)csc2c1=O` [Compound 45, (R)-2-(3-aminopiperidin-1-yl)-3-(2-cyanobenzyl)-4-oxo-3,4-dihydrothieno-[3,2-d]pyrimidine-7-carboxamide], the “DPP 9 IC50” value on Human DPP 9 is listed as “N.I”. Besides, at FAP, the “FAP IC50” value was “N.I”. On human DPP IV, this compound yielded an IC50 of 0.00357 µM. In addition, the “DPP 7 IC50” value in assay [1] is given as “N.I”. The “DPP 8 IC50” value at human DPP 8 was “N.I”.

On to `COC(=O)[C@H](Cc1ccccc1)NC(=O)c1cc2nc(N3CCC[C@@H](N)C3)n(Cc3ccccc3C#N)c(=O)c2s1` [Compound 102, (S)-methyl 2-(2-((R)-3-aminopiperidin-1-yl)-3-(2-cyanobenzyl)-4-oxo-3,4-dihydrothieno[3,2-d]pyrimidine-6-carboxamido)-3-phenylpropanoate], for which the IC50 on Human DPP 9 is 32.6 µM; against FAP it was 68.5 µM; on human DPP IV, 0.0384 µM; on human DPP 8, 27.8 µM. In assay [1], the “DPP 7 IC50” value is “N.I”.

In the case of `CC(C)CCNC(=O)c1cc2nc(N3CCC[C@@H](N)C3)n(Cc3ccccc3C#N)c(=O)c2s1` [Compound 121, (R)-2-(3-aminopiperidin-1-yl)-3-(2-cyanobenzyl)-N-isopentyl-4-oxo-3,4-dihydrothieno[3,2-d]pyrimidine-6-carboxamide], the “DPP 9 IC50” value at Human DPP 9 is on record as “N.I”. Moreover, the “FAP IC50” value at FAP is “N.I”. This compound also came in with an IC50 at human DPP IV of 0.0269 µM. The “DPP 7 IC50” value in assay [1] was “N.I”. The “DPP 8 IC50” value at human DPP 8 is given as “N.I”.

With `N#Cc1ccccc1Cn1c(N2CCC[C@@H](N)C2)nc2cc(C(=O)NC3CCCCC3)sc2c1=O` [Compound 119, (R)-2-(3-aminopiperidin-1-yl)-3-(2-cyanobenzyl)-N-cyclohexyl-4-oxo-3,4-dihydrothieno[3,2-d]pyrimidine-6-carboxamide], on Human DPP 9, the “DPP 9 IC50” value is reported as “N.I”. Moreover, the IC50 against FAP was 113 µM; on human DPP IV it was 0.0206 µM; against human DPP 8 it was 94 µM. In addition, the “DPP 7 IC50” value in assay [1] is “N.I”.

In the case of `CN(C)C(=O)c1cc2nc(N3CCC[C@@H](N)C3)n(Cc3ccccc3C#N)c(=O)c2s1` [Compound 105, (R)-2-(3-aminopiperidin-1-yl)-3-(2-cyanobenzyl)-N,N-dimethyl-4-oxo-3,4-dihydrothieno[3,2-d]pyrimidine-6-carboxamide], the half-maximal inhibitory concentration (IC50) against Human DPP 9 stood at 257 µM; against FAP, 200 µM; against human DPP IV, 0.027 µM. The “DPP 7 IC50” value in assay [1] is reported as “N.I”. In addition, the “DPP 8 IC50” value at human DPP 8 is “N.I”.

For `N#Cc1ccccc1Cn1c(N2CCC[C@@H](N)C2)nc2c(C(=O)NCC3CC3)csc2c1=O` [Compound 73, (R)-2-(3-aminopiperidin-1-yl)-3-(2-cyanobenzyl)-N-(cyclopropylmethyl)-4-oxo-3,4-dihydrothieno[3,2-d]-pyrimidine-7-carboxamide], the IC50 against Human DPP 9 is 66.8 µM; on FAP, 14.6 µM; against human DPP IV it was 0.00892 µM; in assay [1], 159 µM; against human DPP 8 it was 9.08 µM.

`N#Cc1ccccc1Cn1c(N2CCC[C@@H](N)C2)nc2c(C(=O)N3CCCC3)csc2c1=O` [Compound 76, (R)-2-((2-(3-aminopiperidin-1-yl)-4-oxo-7-(pyrrolidine-1-carbonyl)thieno-[3,2-d]pyrimidin-3(4H)-yl)methyl)-benzonitrile]: the “DPP 9 IC50” value on Human DPP 9 was “N.I”. Further, the “FAP IC50” value at FAP is “N.I”. In addition, the half-maximal inhibitory concentration (IC50) against human DPP IV came out at 0.0816 µM. Also, in assay [1], the “DPP 7 IC50” value was “N.I”. For the same compound, the “DPP 8 IC50” value on human DPP 8 is “N.I”.

As for `CCCCNC(=O)c1cc2nc(N3CCC[C@@H](N)C3)n(Cc3ccccc3C#N)c(=O)c2s1` [Compound 117, (R)-2-(3-aminopiperidin-1-yl)-N-butyl-3-(2-cyanobenzyl)-4-oxo-3,4-dihydrothieno[3,2-d]pyrimidine-6-carboxamide], the IC50 on Human DPP 9 came to 78.5 µM; against FAP, 118 µM; at human DPP IV it was 0.016 µM; against human DPP 8, 63.2 µM. Moreover, in assay [1], the “DPP 7 IC50” value is given as “N.I”.

Regarding `CC(=O)Nc1csc2c(=O)n(Cc3ccccc3C#N)c(N3CCC[C@@H](N)C3)nc12` [Compound 86, (R)-N-(2-(3-aminopiperidin-1-yl)-3-(2-cyanobenzyl)-4-oxo-3,4-dihydrothieno-[3,2-d]pyrimidin-7-yl)acetamide], the “DPP 9 IC50” value at Human DPP 9 is recorded as “N.I”. Further, the half-inhibitory concentration (IC50) is 121 µM at FAP, 0.0208 µM at human DPP IV and 318 µM against human DPP 8. In addition, the “DPP 7 IC50” value in assay [1] is recorded as “N.I”.

For the compound `Cl.N#Cc1ccccc1Cn1c(N2CCC[C@@H](N)C2)nc2cc(C(=O)O)sc2c1=O` [Compound 39, (R)-2-(3-aminopiperidin-1-yl)-3-(2-cyanobenzyl)-4-oxo-3,4-dihydrothieno-[3,2-d]pyrimidine-6-carboxylic acid hydrochloride], the “DPP 9 IC50” value at Human DPP 9 is listed as “N.I”. The “FAP IC50” value on FAP is “N.I”. This compound yielded an IC50 at human DPP IV of 0.0283 µM. Further, the “DPP 7 IC50” value in assay [1] is “N.I”. Besides, the “DPP 8 IC50” value at human DPP 8 is listed as “N.I”.

The record behind these values is patent US9045491B2, “Thienyl [3,2-D] pyrimidin-4-one compounds, preparation method, pharmaceutical compositions and use thereof” (SHANGHAI INSTITUTE OF MATERIA MEDICA, CHINESE ACADEMY OF …, priority 2011, dated 2015).
